Laboratory results from US20020091139A1 (DAMON TODD HOLDINGS, L.L.C., priority 1997, published 2002).

Legend:
platelet aggregation = settings: cited from earlier work
[1] = tested on: steroid-dependent asthmatics (SDA) and non-steroid-dependent asthmatics (NSDA); experiment: Follow-up observations of asthmatics treated long-term with HCQ (SDA and NSDA groups); assay type: in vivo, human
From the text: Follow-up observations carried out over the last four years among patients treated with HCQ continue to encourage further research. In Table I and II, data concerning the course of 23 steroid-dependent asthmatics (SDA) who have been followed for at least six months on therapy is presented. Spirometric data from these patients is summarized on page 2 of Table I. In the summary, two data groups are reported: the first includes all data points generated and compares each time point with t=0; the second is restricted to the 17 patients for whom data is complete at all time points. The findings are similar for both groups: both FVC and FEV-1 increase both a significant amount (about 10%) and to a degree that is statistically significant as well (using Wilcoxon Signed-Rank probability testing). These increases occurred despite a taper in prednisone outlined in Table I and detailed in Table II. Average daily oral steroid dosage was reduced by 60%, while objective spirometric flow measures and general health improved markedly.
Changes in severity of asthma in non-steroid-dependent asthmatics (NSDA) are depicted in Table III. In Table III, spirometric flow data is presented. […] Probability testing (Wilcoxon Signed-Rank) in this group achieves significant change from baseline measures by month six and continued improvement is noted throughout the time of treatment.
2] […] In neither the NSDA group (Table I) nor in the SDA group (Table II) did spirometric flows (as measured by FEV-1) improve to a statistically significant degree at three months. […] In Table IV, data regarding the frequency of rescue-intervention in the NSDA group is reviewed. […] The course of patient, presented in Table V is illustrative of the reproducibility of the delay in onset of action seen in severe asthmatics. This patient was started on HCQ due to very labile asthma requiring frequent ER visits and oral steroid bursts (see Table VI). On HCQ they did better, but became pregnant (against medical advice) and the drug was discontinued. Subsequently, they did quite poorly necessitating restart of alternate-day oral steroids which were maintained during the latter part of their pregnancy. HCQ was restarted at their request following delivery. Again, no clear effect in the person was noted after three months, but after seven months substantial improvement was noted despite appreciable reduction in the dose of their alternate-daily oral steroids.
In patients with normal IgE levels, changes were not significant either in amount (19%) nor by statistical criteria. Significant declines in IgE were virtually completely confined to that segment of the patients who entered treatment with elevated IgE levels. […] These clinical observations are supported by in vitro studies carried out recently by Seggev and co-workers. […] J Immunol 1993;150(8):62A.

human lung = settings: ex vivo human lung; cited from earlier work
influenza and adenovirus = settings: personal communication; cited from earlier work
[2] = tested on: neutrophil superoxide production; settings: also in peripheral blood monocytes; cited from earlier work
[3] = tested on: T-cells and monocytes; human macrophages; settings: cited from earlier work
[4] = tested on: severe symptomatic non-steroid dependent and steroid-dependent asthmatics; experiment: Open label 28-week trial of HCQ in severe asthma; assay type: in vivo, human; settings: for mean IgE level: ten patients
Protocol: Annals of Allergy 1992;68(1):80 (abstract #40). The initial trial involved four severe symptomatic non-steroid dependent and seven steroid-dependent asthmatics in an open label 28-week trial at doses of 300-400 mg/d. Evaluation measures included daily symptom diary scores of six symptoms, subjective global evaluation, spirometric flow studies, and cumulative monthly steroid dosages.

symptomatic asthmatics = experiment: Double blind placebo-controlled 30-week trial of HCQ in moderate symptomatic asthma; assay type: in vivo, human
From the text: Symptomatic asthmatics (mean duration>11 years) on stable doses of at least 6 puffs of inhaled steroid per day and p.r.n. bronchodilator (BD) were studied. […] Changes from baseline mean FEV-1 comprised the primary efficacy variable. Other objective variables included daily peak flows, BD usage and setum IgE level; symptom scores and physician global (safety and tolerance) assessments were also obtained. Subjective efficacy variables (rated from 0-3) include breathing restrictions (wheezing, coughing, chest tightness and/or breathlessness), revived need for BD at 6 hours, and nocturnal asthma.

HIV virus = settings: T cells and monocytes; cited from earlier work
[5] = steroid-dependent asthmatics, at least six months on therapy
[6] = group as a whole, 28 weeks, 300-400 mg/d, p<0.01
[7] = non-steroid-dependent asthmatics, p<0.05
[8] = steroid-dependent patients, not significant

CCN(CCO)CCCC(C)Nc1ccnc2cc(Cl)ccc12 (stereo not shown) [HCQ, Hydroxychloroquine]
platelet aggregation (platelet aggregation): inhibit | forced vital capacity and FEV-1 ([1]; 11 non-steroid-dependent asthmatics, significant from month six): very significant improvements | rescue-interventions (normalized rates) ([1]; NSDA group, until after three months therapy): no significant fall | decrease in serum IgE levels ([1]; patients in general, pre- vs post-treatment): ~40% | change in serum IgE levels ([1]; patients with normal IgE levels, not significant): 19% | onset of significant effects ([1]; severe asthmatics): only after three months | reduction of average daily oral steroid dosage ([1]; steroid-dependent asthmatics): 60% | FEV-1 increase [1, 5]: about 10% | FVC increase [1, 5]: about 10% | histamine release (human lung): inhibits | leukotriene release (human lung): inhibits | infection by influenza and adenovirus (influenza and adenovirus): inhibits | neutrophil superoxide production and release [2]: markedly reduce | release of IL-1 and IL-6 ([3]; T-cells and monocytes in vitro): inhibit | release of tumor necrosis factor ([3]; human macrophages in vitro): inhibit | effect on plasma theophylline levels ([4]; drug interaction): no significant effect | mean IgE level ([4]; during treatment, p<0.05): 339 IU/ml | mean FEV-1 increase [4, 6]: 17% | mean FVC increase [4, 6]: 10% | mean of each of six symptom scores ([4]; group as a whole, p<0.05): declined significantly | mean FEV-1 rise [4, 7]: 32% | mean FVC rise [4, 7]: 19% | mean symptom scores for four of five symptoms [4, 7]: declined from baseline | mean IgE level ([4]; pretreatment): 645 IU/ml | cumulative mean monthly steroid dosage required ([4]; steroid-dependent patients, at entry): 383 mg | cumulative mean monthly steroid dosage required ([4]; steroid-dependent patients, at week 28): 191 mg | decrease of cumulative mean monthly steroid dosage required ([4]; steroid-dependent patients, entry to week 28, p<0.01): 50% | mean FEV-1 increase [4, 8]: 9% | mean FVC increase [4, 8]: 7% | symptom scores ([4]; steroid-dependent patients, p<0.05): two of five symptom scores improved | tolerability (symptomatic asthmatics; 30 weeks): well tolerated without notable side-effects | patients requiring oral steroid rescue interventions (symptomatic asthmatics; HCQ group n=8 (4 on placebo)): 2 patients | mean IgE level (symptomatic asthmatics; HCQ group, baseline): 240 lU/ml | mean IgE level (symptomatic asthmatics; HCQ group, on therapy): 125 lU/ml | evening peak flows rise (symptomatic asthmatics; HCQ group, p<0.04): 14.2% | mean IgE level decline (symptomatic asthmatics; HCQ group, p<0.05): 48% | BD usage fall (symptomatic asthmatics; bronchodilator usage, HCQ group, p<0.03): 18.6% | mean FEV-1 increase (symptomatic asthmatics; last 2 visits on therapy vs baseline, HCQ group n=8, p<0.05): 10.8% | effect on cholesterol (symptomatic asthmatics; sparing of HDL levels): mild hypocholesterolemic effects | replication of HIV virus (HIV virus): actively inhibits
